Measurements as given in patent US5698515A, “Insulin-containing polymer composition for oral administration” (Institut Neftekhimicheskogo Sinteza Imeni A.V.Topchieva …, priority 1994, dated 1997).

What was measured:
[1] = test system: white rats with experimental diabetes (streptozotocin); test: Blood glucose in rats with streptozotocin-induced experimental diabetes; format: in vivo; settings: diabetic rat, p.e. (subcutaneously), ± 8%
Protocol: Experimental diabetes is obtained (induced) in white rats of […], weighing 180 g., by way of intraperitoneally administered streptozotocin in the amount of 70 mg. for 1 kg. of weight. Synthesized polymers began to be introduced after the glucose level has exceeded 400 mg. %.
The procedure is conducted according to Example 12 with an equal amount of insulin administered subcutaneously in the form of solution.

rabbits [2] = settings: subcutaneous injection, 0.23 units of insulin, cited from earlier work
rabbits [3] = test: Glucose concentration in blood of rabbits after oral administration of insulin hydrogels; format: in vivo; settings: rabbit, orally, ± 8%
Protocol: 0.1 g. of a pre-dried crosslinked polyacrylamide, modified with ovomucoid, is placed in 1 ml. of an aqueous solution of insulin (insulin activity is 25 U/mg.) with a concentration of 1.0 mg./ml. per hour at room temperature. During this time limit the polymer swells completely and is ready to use. The synthesized hydrogel in an amount corresponding to 5 units of insulin per kg. of animal weight is administered to rabbits orally, using a catheter. Blood samples are collected after 30, 60, 90 and 120 minutes.
The procedure is conducted according to Example 1 using various crosslinked modified polymers, various concentrations of the insulin solution, various quantities of the cross-linked modified polymers and various amounts of ovomucoid.
The procedure is conducted according to Example 1 but using a nonmodified polyacrylamide hydrogel.
Rabbits are treated orally with an insulin solution in an amount of 7 U/kg. of animal weight, a mixture of ovomucoid (2.5 mg./kg. weight) and insulin (8 U/kg) or a modified hydrogel (200 mg./kg. weight).

14k: Control: porcine insulin solution administered subcutaneously to rats [Example 14k]
Glucose Conc. in Blood ([1]; 0 min): 400 Mg./100 ml. | Glucose Conc. in Blood ([1]; 30 min after administration): 160 Mg./100 ml. | Glucose Conc. in Blood ([1]; 60 min after administration): 145 Mg./100 ml. | Glucose Conc. in Blood ([1]; 90 min after administration): 150 Mg./100 ml.

insulin
glucose concentration in blood (rabbits [2]; 150 min. after the injection): 120 mg./100 ml. | reduction of glucose concentration in blood (rabbits [2]; 150 min. after the injection): 74% | glucose concentration in blood, initial (rabbits [2]; before): 330 mg./100 ml.

15k: Control: porcine insulin solution given orally to rabbits, 7 U/kg [Example 15k]
Glucose Conc. in Blood (rabbits [3]; 0 min (start), 5 U insulin/kg in Ex. 1 (Ex. 15: 7 U/kg; Ex. 16: 8 U/kg + ovomucoid 2.5 mg/kg; Ex. 17: 200 mg/kg hydrogel)): 152 Mg./100 ml. | Glucose Conc. in Blood (rabbits [3]; 30 min after administration): 151 Mg./100 ml. | Glucose Conc. in Blood (rabbits [3]; 60 min after administration): 150 Mg./100 ml. | Glucose Conc. in Blood (rabbits [3]; 90 min after administration): 160 Mg./100 ml.
